Values joined by “and” are separate entries in the source; they are usually repeats but may differ in a detail not shown here. Identical values can stand only once.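 1) Cells in 96-well plates. 2) Compound, 48 h, 5 concentrations. 3) Linear interpolation between surrounding doses. 4) Unreached endpoint = highest concentration. The concentration for 50% growth inhibition is given as GI50. Definition used: TGI = concentration required for complete inhibition of growth.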
How the values were obtained:
Assay in all cases: DTP human tumour cell line panel, 48 h
UACC-257 melanoma = tested on: UACC-257 melanoma
HOP-62 NSCLC = tested on: HOP-62 NSCLC
SF-539 CNS = tested on: SF-539 CNS
NCI-H460 lung = tested on: NCI-H460 lung
RPMI-8226 leukemia = tested on: RPMI-8226 leukemia
SNB-19 CNS = tested on: SNB-19 CNS
HL-60(TB) leukemia = tested on: HL-60(TB) leukemia
IGROV1 ovarian = tested on: IGROV1 ovarian
OVCAR-8 ovarian = tested on: OVCAR-8 ovarian
UO-31 renal = tested on: UO-31 renal

SMILES	GI50 (UACC-257 melanoma)	TGI (UACC-257 melanoma)	GI50 (HOP-62 NSCLC)	TGI (HOP-62 NSCLC)	GI50 (SF-539 CNS)	TGI (SF-539 CNS)	GI50 (NCI-H460 lung)	TGI (NCI-H460 lung)	GI50 (RPMI-8226 leukemia)	TGI (RPMI-8226 leukemia)	GI50 (SNB-19 CNS)	TGI (SNB-19 CNS)	GI50 (HL-60(TB) leukemia)	TGI (HL-60(TB) leukemia)	GI50 (IGROV1 ovarian)	TGI (IGROV1 ovarian)	GI50 (OVCAR-8 ovarian)	TGI (OVCAR-8 ovarian)	GI50 (UO-31 renal)	TGI (UO-31 renal)
FC(F)(F)c1cccc2c(SCCc3n[nH]c(=S)o3)ccnc12	33.3 µM	89 µM	94.2 µM	> 100 µM	45.9 µM	> 100 µM	67.4 µM	> 100 µM	30.3 µM	> 100 µM	54.2 µM	> 100 µM	67.8 µM	> 100 µM	23.4 µM	> 100 µM	36.5 µM	> 100 µM	25.4 µM	> 100 µM
O=c1cccccc1[O-].O=c1cccccc1[O-].O=c1cccccc1[O-].[Ce+3]	–	96.9 µM	17.4 µM	45.3 µM	14.8 µM	58.8 µM	–	> 100 µM	–	> 100 µM	–	> 100 µM	–	89 µM	–	88.4 µM	–	73.6 µM	–	84.6 µM
C=C1C(OC/C=C/COC2O[C@@H]3O[C@@]4(C)CC[C@H]5[C@H](C)CC[C@@H](C2=C)[C@@]35OO4)O[C@@H]2O[C@@]3(C)CC[C@H]4[C@H](C)CC[C@@H]1[C@@]24OO3 (stereo partly specified)	4.96 µM	36 µM	15.8 µM	41.5 µM	10 µM	25.2 µM	5.18 µM	27.2 µM	–	10.6 µM	30.8 µM	> 100 µM	–	47.1 µM	1.6 µM	> 36.6 µM	1.96 µM	> 36.6 µM	2.23 µM	> 39.4 µM
Nc1cc(S(N)(=O)=O)ccc1SSc1ccc(S(N)(=O)=O)cc1N	–	> 100 µM	–	> 100 µM	–	> 100 µM	–	> 100 µM	–	> 100 µM	–	> 100 µM	–	> 100 µM	–	> 100 µM	–	> 100 µM	–	> 100 µM
COc1c(Cl)ccc2c(-c3nc4cc(Cl)c(F)cc4s3)cc(=O)oc12	26.5 µM	> 73.6 µM	6.26 µM	20.7 µM	1.77 µM	3.36 µM	33.2 µM	> 100 µM	3.58 µM	> 38.2 µM	> 43.4 µM	> 72.3 µM	2.44 µM	5.39 µM	1.68 µM	3.97 µM	11.2 µM	> 100 µM	1.44 µM	3.15 µM
COc1ccc(Cn2cc3c(c2-c2cc(OC)c(OC)c(OC)c2)CCc2cnoc2-3)cc1N	> 23.1 µM	> 100 µM	0.0521 µM	> 100 µM	0.0344 µM	> 100 µM	0.0377 µM	5.22 µM	0.0489 µM	–	0.0621 µM	> 100 µM	0.0268 µM	0.184 µM	0.0818 µM	> 72.6 µM	0.0702 µM	> 100 µM	0.228 µM	> 50.9 µM
CSc1ccc(SC2c3ccc(C)cc3Oc3nc(N)c(C#N)c(N)c32)cc1 (stereo unspecified)	1.81 µM	3.24 µM	1.73 µM	3.22 µM	1.56 µM	2.98 µM	2.03 µM	4.07 µM	2.43 µM	6.96 µM	1.77 µM	3.16 µM	2.12 µM	4.42 µM	1.28 µM	3.05 µM	1.79 µM	3.18 µM	1.2 µM	2.43 µM
COC(=O)[C@H](C)NC(=O)[C@@H](OC)[C@@H]1Cc2cc3cc(OC4CC(OC5CC(O)C(O)C(C)O5)C(O)C(C)O4)c(C)c(O)c3c(O)c2C(=O)[C@H]1OC1CC(OC2CC(OC3CC(C)(O)C(O)C(C)O3)C(O)C(C)O2)C(O)C(C)O1 (stereo partly specified)	0.052 µM	0.846 µM	0.0774 µM	> 50 µM	0.0478 µM	2.62 µM	0.0344 µM	> 50 µM	0.1 µM	1.89 µM	0.132 µM	> 50 µM	0.894 µM	10.6 µM	0.05 µM	> 50 µM	0.0461 µM	> 50 µM	0.182 µM	3.09 µM
CCn1c(=O)c2ccccc2n2c(=O)c3cc4ccccc4cc3nc12	–	> 100 µM	–	> 100 µM	–	> 100 µM	–	> 100 µM	–	> 100 µM	–	> 100 µM	–	> 100 µM	–	> 100 µM	–	> 100 µM	–	> 100 µM
CCNNC(=O)[C@@H]1[C@H](c2cc(OC)c(OC)c(OC)c2)c2cc3c(cc2[C@H](O)[C@H]1CO)OCO3	4.37 µM	–	0.561 µM	> 100 µM	0.294 µM	0.802 µM	0.343 µM	> 100 µM	0.407 µM	> 100 µM	0.452 µM	> 100 µM	0.277 µM	0.707 µM	0.59 µM	> 100 µM	0.692 µM	> 100 µM	4.32 µM	> 100 µM
CN(CC(=O)O)Cc1oc(CO)cc(=O)c1O	–	> 100 µM	–	> 100 µM	–	> 100 µM	–	> 100 µM	–	> 100 µM	–	> 100 µM	–	76.5 µM	–	> 100 µM	–	> 100 µM	–	> 100 µM
Cc1nc2c(N3CCCC3)nc(N3CCNCC3)nc2nc1NCc1ccccc1	7.15 µM	12.9 µM and 3.64 µM	5.76 µM	11.8 µM and 8.26 µM	6.21 µM	13.4 µM and 7 µM	5.97 µM	13.3 µM and 13.4 µM	4.08 µM	10.2 µM and 4.84 µM	–	10.6 µM and 16.3 µM	4.71 µM	13.2 µM and 11.8 µM	4.49 µM	9.84 µM and 15.1 µM	5.73 µM	11 µM and 14.5 µM	1.48 µM	6.06 µM and 6.39 µM
CCN(CC)c1ccc(N=C2C=C(Cl)C(=O)c3ncccc32)c(C)c1	–	7.29 µM	–	25 µM	–	28 µM	–	39 µM	–	90.3 µM	–	89.4 µM	–	4.72 µM	–	32 µM	–	> 100 µM	–	41.6 µM
CC(C)C[C@H](NC(=O)[C@@H](NC(=O)c1cccc(-c2ccccc2)n1)[C@@H](C)O)B(O)O	0.00502 µM	0.0319 µM and 0.0213 µM	0.0106 µM and < 0.0106 µM	0.0358 µM and 0.0391 µM	0.00264 µM	0.00684 µM and < 0.0114 µM	0.0285 µM and 0.0237 µM	0.532 µM	–	< 0.0108 µM	0.616 µM and 0.106 µM	> 52.4 µM	0.00379 µM and 0.0101 µM	0.162 µM and 0.0287 µM	0.0256 µM and 0.0229 µM	0.171 µM	0.0261 µM and 0.0238 µM	> 51.6 µM	0.0215 µM and 0.0183 µM	0.0849 µM and 0.114 µM
CS(=O)(=O)N(CCC#N)c1ccc(C=O)cc1	–	> 100 µM	–	> 100 µM	–	> 100 µM	–	> 100 µM	–	> 100 µM	–	> 100 µM	–	> 100 µM	–	> 100 µM	–	> 100 µM	–	> 100 µM
COc1cc(C2CC(=O)Nc3c2ccc2ccccc32)cc(Br)c1OC (stereo unspecified)	0.504 µM	68.1 µM	0.753 µM	> 100 µM	0.583 µM	15.1 µM	0.368 µM	> 20.2 µM	0.562 µM	24.1 µM	11.7 µM	> 100 µM	0.212 µM	0.462 µM	0.86 µM	> 42.3 µM	0.772 µM	> 51.1 µM	2.24 µM	> 34.5 µM
Cc1cnccc1N=Nc1ccc(N(C)C)cc1	–	53.5 µM	–	> 100 µM	–	69.2 µM	–	> 100 µM	–	48.3 µM	–	> 100 µM	–	> 100 µM	–	99.6 µM	–	60.1 µM	–	> 100 µM
CC(=O)[O-].[Zn].c1ccc(/C(=N\Nc2ccccn2)c2ccccn2)cc1	–	2.08 µM	0.591 µM	1.81 µM	1.43 µM	9.53 µM	0.35 µM	1.32 µM	–	2.86 µM	–	5.73 µM	–	0.0048 µM and 0.0138 µM	–	0.272 µM	0.0708 µM	2.4 µM	0.332 µM	16.5 µM
